Data taken from patent publication US20210393932A1, “DERMAL PATCHES AND GLASS SWABS FOR APPLICATION OF TOPICAL IMMUNOSENSITIZERS” (Squarex, LLC, priority 2020, published 2021).
Several values for one entry are separate records, joined by “and”; a condition that tells them apart may be missing. Equal entries are not always repeated.

What was measured:
[1] = Residual SADBE and SAMBE in patches after 12 hours on guinea pigs; format: in vivo, guinea pig
Method: Patches were removed from the pigs at the indicated times and immediately the reservoir portion of the patch was cut out and placed in a 50 ml tube with 10 ml of DMSO. The tubes of DMSO with patches were transported to the Squarex laboratory, shaken at 200 rpm for 1 hour or more, and then the DMSO from each tube was placed in an injection vial and analyzed for SADBE content by HPLC on a C18 column with the program SADBE3-50 ul. SADBE elutes in this program at about 24.0 minutes and absorbs at 255 nm, so the area of the 24.0 min peak at 255 nm was used to quantify SADBE. The SADBE degradation product squaric acid monobutyl ester (SAMBE) was also quantified by 255 nm area under the curve at the elution time of 12.7 minutes.

[2] = system: common warts and alopecia areata; details: solutions of 0.05% to 2.0% weight/volume, vehicle almost always acetone, applied repeatedly (Buckley et al., Lee et al.); cited from earlier work

CCCCOc1c(OCCCC)c(=O)c1=O [SADBE, squaric acid dibutyl ester]
SADBE as % of expected (remaining in patch) ([1]; 2% patches, range of 10 patches): 0.0-1.3%
SADBE as % of expected (remaining in patch) ([1]; 6% patches, average of 10 patches): 11% and 10.67%
SADBE as % of expected (remaining in patch) ([1]; 6% patches, range of 10 patches): 2.7-22.7%
SADBE as % of expected (remaining in patch) ([1]; 18% patches, average of 10 patches): 34% and 34.13%
SADBE as % of expected (remaining in patch) ([1]; 18% patches, range of 10 patches): 23.0-46.5%
treatment of common warts and alopecia areata [2]: used successfully
